Data on 57 compounds can be found in US11008301B2, “Piperidinone formyl peptide 2 receptor agonists” (BRISTOL-MYERS SQUIBB COMPANY, priority 2017, dated 2021).

“And” between values parts separate entries of the source, which are not always exact repeats. Equal values may be shown once. Some results are limits rather than exact numbers.

Chain of human FPR2 (P25090 whole entry): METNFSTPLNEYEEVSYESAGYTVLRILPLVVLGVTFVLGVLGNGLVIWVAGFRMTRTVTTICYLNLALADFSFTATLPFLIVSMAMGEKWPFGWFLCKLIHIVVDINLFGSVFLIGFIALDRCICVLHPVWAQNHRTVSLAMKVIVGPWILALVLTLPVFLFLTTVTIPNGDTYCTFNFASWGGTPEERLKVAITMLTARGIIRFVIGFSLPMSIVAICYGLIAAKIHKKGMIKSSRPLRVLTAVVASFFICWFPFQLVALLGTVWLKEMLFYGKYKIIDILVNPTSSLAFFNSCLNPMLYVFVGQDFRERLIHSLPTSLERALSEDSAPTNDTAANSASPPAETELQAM

The test addresses human FPR2 (Homo sapiens (Human), UniProt P25090). The test can be described thus: FPR2 cyclic adenosine monophosphate (cAMP) assay. It is filed as cell-based. The following applies: CHO cells overexpressing human FPR2; cAMP assay; read-out: hFPR2 agonist activity EC50 (hFPR2 Assay). As for the experimental part: FPR2 and FPR1 Cyclic Adenosine Monophosphate (cAMP) Assays. A mixture of forskolin (5 μM final for FPR2 or 10 μM final for FPR1) and IBMX (200 μM final) were added to 384-well Proxiplates (Perkin-Elmer) pre-dotted with test compounds in DMSO (1% final) at final concentrations in the range of 1.7 nM to 100 μM. Chinese Hamster Ovary cells (CHO) overexpressing human FPR1 or human FPR2 receptors were cultured in F-12 (Ham's) medium supplemented with 10% qualified FBS, 250 μg/ml zeocin and 300 μg/ml hygromycin (Life Technologies). Reactions were initiated by adding 2,000 human FPR2 cells per well or 4,000 human FPR1 cells per well in Dulbecco's PBS (with calcium and magnesium) (Life Technologies) supplemented with 0.1% BSA (Perkin-Elmer). The reaction mixtures were incubated for 30 min at room temperature. The level of intracellular cAMP was determined using the HTRF HiRange cAMP assay reagent kit (Cisbio) according to manufacturer's instruction. Solutions of cryptate conjugated anti-cAMP and d2 flurorophore-labelled cAMP were made in a supplied lysis buffer separately. Upon completion of the reaction, the cells were lysed with equal volume of the d2-cAMP solution and anti-cAMP solution. After a 1-h room temperature incubation, time-resolved fluorescence intensity was measured using the Envision (Perkin-Elmer) at 400 nm excitation and dual emission at 590 nm and 665 nm. A calibration curve was constructed with an external cAMP standard at concentrations ranging from 1 μM to 0.1 pM by plotting the fluorescent intensity ratio from 665 nm emission to the intensity from the 590 nm emission against cAMP concentrations. The potency and activity of a compound to inhibit cAMP production was then determined by fitting to a 4-parametric logistic equation from a plot of cAMP level versus compound concentrations.
For orientation: Cyclic AMP is a second messenger, typically raised through Gs and lowered through Gi signalling.
For `O=C(Nc1ccc(C(F)(F)F)cc1)N[C@@H]1CCCN(c2ccc(N3CC[C@@H](O)C3)cc2)C1=O` [Example 1, 1-(1-(4-((R)-3-Hydroxypyrrolidin-1-yl)phenyl)-2-oxopiperidin-3-yl)-3-(4-(trifluoromethyl)phenyl)urea], the EC50 is at most 10 nM.

For `O=C(Nc1ccc(C(F)(F)F)cc1)N[C@@H]1CCCN(c2ccc(N3CCCC3=O)cc2)C1=O` [Example 2], the EC50 was in the range of 10 to 100 nM.

`O=C(Nc1ccc(C(F)(F)F)cc1)N[C@@H]1CCCN(c2ccc(N3CC[C@H](O)C3)cc2)C1=O` [Example 3]: the EC50 was in the range of 10 to 100 nM.

As for `O=C(Nc1ccc(C(F)(F)F)cc1)N[C@@H]1CCCN(c2ccc(N3C[C@H]4CC[C@@H](C3)O4)cc2)C1=O` [Example 5], the EC50 was at most 10 nM.

On to `O=C(Nc1ccc(Cl)nc1)N[C@@H]1CCCN(c2ccc(N3CC[C@@H](O)C3)cc2)C1=O` [Example 6], for which the EC50 is 10 to 100 nM.

With `C[C@@H]1COCCN1c1ccc(N2CCC[C@@H](NC(=O)Nc3ccc(C(F)(F)F)nc3)C2=O)cc1` [Example 7], the EC50 fell in the range of 10 to 100 nM.

For the compound `C[C@H]1COCCN1c1ccc(N2CCC[C@@H](NC(=O)Nc3ccc(C(F)(F)F)nc3)C2=O)cc1` [Example 8], the half-maximal effective concentration (EC50) fell in the range of 100 to 1000 nM.

For `O=C(Nc1ccc(C(F)(F)F)cc1)N[C@@H]1CCCN(c2ccc(N3CC4(COC4)C3)cc2)C1=O` [Example 10], the half-maximal effective concentration (EC50) lay in the range of 10 to 100 nM.

Regarding `COCC1COCCN1c1ccc(N2CCC[C@@H](NC(=O)Nc3ccc(C(F)(F)F)cc3)C2=O)cc1` (stereo partly drawn) [Example 13], the EC50 is at most 10 nM.

On to `COCC1CCCCN1c1ccc(N2CCC[C@@H](NC(=O)Nc3ccc(C(F)(F)F)nc3)C2=O)cc1` (stereo partly drawn) [Example 16], for which the 50% effective concentration (EC50) fell in the range of 10 to 100 nM.

On to `COCC1COCCN1c1ccc(N2CCC[C@@H](NC(=O)Nc3ccc(C(F)(F)F)cc3)C2=O)cc1` (stereo partly drawn) [Example 21], for which the EC50 is at most 10 nM.

In the case of `COCC1COCCN1c1ccc(N2CCC[C@@H](NC(=O)Nc3ccc(C(F)(F)F)nc3)C2=O)cc1` (stereo partly drawn) [Example 22], the EC50 was 100 to 1000 nM.

Take `COC[C@@H]1CCCN1c1ccc(N2CCC[C@@H](NC(=O)Nc3ccc(C(F)(F)F)cn3)C2=O)cc1` [Example 24]: the EC50 fell in the range of 100 to 1000 nM.

Consider `COC[C@@H]1CCCN1c1ccc(N2CCC[C@@H](NC(=O)Nc3ccc(C(F)(F)F)nc3)C2=O)cc1` [Example 25], for which the EC50 fell in the range of 10 to 100 nM.

As for `COC[C@@H]1CCCN1c1ccc(N2CCC[C@@H](NC(=O)Nc3ccc(C(F)(F)F)cc3)C2=O)cc1` [Example 27], the EC50 was in the range of 10 to 100 nM.

As for `O=C(Nc1ccc(C(F)(F)F)cn1)N[C@@H]1CCCN(c2ccc(N3CC[C@@H](O)C3)cc2)C1=O` [Example 28], the EC50 was in the range of 100 to 1000 nM.

Consider `CC(=O)N1CCN(c2ccc(N3CCC[C@@H](NC(=O)Nc4ccc(C(F)(F)F)cc4)C3=O)cc2)CC1` [Example 29], for which the EC50 fell in the range of 100 to 1000 nM.

In the case of `COC1CCN(c2ccc(N3CCC[C@@H](NC(=O)Nc4ccc(C(F)(F)F)cc4)C3=O)cc2)CC1` [Example 30], the EC50 was at most 10 nM.

As for `O=C(Nc1ccc(C(F)(F)F)cc1)N[C@@H]1CCCN(c2ccc(N3CCCC(O)C3)cc2)C1=O` (stereo partly drawn) [Example 31], the EC50 was in the range of 10 to 100 nM.

Consider `O=C(Nc1ccc(C(F)(F)F)cc1)N[C@H]1CCCN(c2ccc(N3CCCC(O)C3)cc2)C1=O` (stereo partly drawn) [Example 32], for which the 50% effective concentration (EC50) lay in the range of 100 to 1000 nM.

As for `CC(C)N1CCN(c2ccc(N3CCC[C@@H](NC(=O)Nc4ccc(C(F)(F)F)cc4)C3=O)cc2)CC1` [Example 33], the EC50 fell in the range of 10 to 100 nM.

As for `C[C@@H]1COCCN1c1ccc(N2CCC[C@@H](NC(=O)Nc3ccc(C(F)(F)F)cc3)C2=O)cc1` [Example 35], the EC50 is at most 10 nM.

In the case of `COc1ccc(NC(=O)N[C@@H]2CCCN(c3ccc(N4CCOC[C@H]4C)cc3)C2=O)cc1` [Example 36], the EC50 fell in the range of 10 to 100 nM.

`C[C@H]1COCCN1c1ccc(N2CCC[C@@H](NC(=O)Nc3ccc(C(F)(F)F)cc3)C2=O)cc1` [Example 37]: the EC50 was in the range of 10 to 100 nM.

Turning to `CC1CCCN(c2ccc(N3CCC[C@@H](NC(=O)Nc4ccc(C(F)(F)F)cc4)C3=O)cc2)C1` (stereo partly drawn) [Example 38], the EC50 was at most 10 nM.

Consider `CC(C)[C@@H]1COCCN1c1ccc(N2CCC[C@@H](NC(=O)Nc3ccc(C(F)(F)F)cc3)C2=O)cc1` [Example 39], for which the EC50 was at most 10 nM.

For `CC1(C)CCN(c2ccc(N3CCC[C@@H](NC(=O)Nc4ccc(C(F)(F)F)cc4)C3=O)cc2)CC1` [Example 40], the EC50 lay within 10 to 100 nM.

As for `CC1CCN(c2ccc(N3CCC[C@@H](NC(=O)Nc4ccc(C(F)(F)F)cc4)C3=O)cc2)CC1` [Example 41], the EC50 was 10 to 100 nM.

In the case of `CCN1CCN(c2ccc(N3CCC[C@@H](NC(=O)Nc4ccc(C(F)(F)F)cc4)C3=O)cc2)CC1` [Example 42], the EC50 fell in the range of 10 to 100 nM.

In the case of `C[C@@H]1CN(c2ccc(N3CCC[C@@H](NC(=O)Nc4ccc(C(F)(F)F)cc4)C3=O)cc2)C[C@H](C)O1` [Example 43], the EC50 lay in the range of 10 to 100 nM.

For `CN1CCN(c2ccc(N3CCC[C@@H](NC(=O)Nc4ccc(C(F)(F)F)cc4)C3=O)cc2)CC1` [Example 44], the concentration giving a half-maximal response (EC50) lay within 10 to 100 nM.

As for `O=C(Nc1ccc(C(F)(F)F)cc1)N[C@@H]1CCCN(c2ccc(N3CCOCC3)cc2)C1=O` [Example 46], the EC50 was at most 10 nM.

Regarding `O=C(Nc1ccc(C(F)(F)F)nc1)N[C@@H]1CCCN(c2ccc(N3C[C@H]4CC[C@@H](C3)O4)cc2)C1=O` [Example 47], the EC50 was in the range of 100 to 1000 nM.

As for `C[C@@H]1COCCN1c1ccc(N2CCC[C@@H](NC(=O)Nc3ccc(C(F)(F)F)cn3)C2=O)cc1` [Example 48], the EC50 was in the range of 100 to 1000 nM.

As to `O=C(Nc1ccc(C(F)(F)F)cn1)N[C@@H]1CCCN(c2ccc(N3CCCCC3=O)cc2)C1=O` [Example 49], the EC50 fell in the range of 100 to 1000 nM.

Turning to `O=C(Nc1ccc(C(F)(F)F)cn1)N[C@@H]1CCCN(c2ccc(N3CCCCC3=O)cc2F)C1=O` [Example 51], the EC50 is 100 to 1000 nM.

Consider `O=C(Nc1ccc(C(F)(F)F)cc1)N[C@@H]1CCCN(c2ccc(N3CCCCC3=O)cc2F)C1=O` [Example 52], for which the half-maximal effective concentration (EC50) fell in the range of 10 to 100 nM.

With `O=C(Nc1ccc(C(F)(F)F)cc1)N[C@@H]1CCCN(c2ccc(N3CCOCC3)cc2F)C1=O` [Example 53], the EC50 was in the range of 10 to 100 nM.

Turning to `O=C(Nc1ccc(C(F)(F)F)cc1)N[C@@H]1CCCN(c2ccc(N3CC[C@@H](O)C3)nc2)C1=O` [Example 55], the concentration giving a half-maximal response (EC50) was 10 to 100 nM.

As for `O=C(Nc1ccc(C(F)(F)F)cc1)N[C@@H]1CCCN(c2ccc(N3CCCC(F)C3)nc2)C1=O` (stereo partly drawn) [Example 57], the EC50 lay within 10 to 100 nM.

Consider `COC1CCN(c2ccc(N3CCC[C@@H](NC(=O)Nc4ccc(C(F)(F)F)cc4)C3=O)cn2)CC1` [Example 58], for which the EC50 is 10 to 100 nM.

In the case of `CC1CCN(c2ccc(N3CCC[C@@H](NC(=O)Nc4ccc(C(F)(F)F)cc4)C3=O)cn2)CC1` [Example 59], the EC50 fell in the range of 10 to 100 nM.

`O=C(Nc1ccc(C(F)(F)F)cc1)N[C@@H]1CCCN(c2ccc(N3CCCC(O)C3)nc2)C1=O` (stereo partly drawn) [Example 60]: the EC50 was 10 to 100 nM.

`O=C(Nc1ccc(C(F)(F)F)cc1)N[C@@H]1CCCN(c2ccc(N3CCN(CCO)CC3)nc2)C1=O` [Example 61]: the EC50 is 10 to 100 nM.

For `O=C(Nc1ccc(C(F)(F)F)nc1)N[C@@H]1CCCN(c2ccc(N3[C@@H]4CC[C@H]3COC4)nc2)C1=O` [Example 62], the half-maximal effective concentration (EC50) lay in the range of 100 to 1000 nM.

On to `COC[C@@H]1CCCN1c1ccc(N2CCC[C@@H](NC(=O)Nc3ccc(C(F)(F)F)cn3)C2=O)cn1` [Example 63], for which the EC50 lay in the range of 100 to 1000 nM.

Consider `O=C(Nc1ccc(C(F)(F)F)cc1)N[C@@H]1CCCN(c2ccc(N3CCCC(CO)C3)nc2)C1=O` (stereo partly drawn) [Example 64], for which the EC50 was in the range of 100 to 1000 nM.

For the compound `COCC1CCCN1c1ccc(N2CCC[C@@H](NC(=O)Nc3ccc(C(F)(F)F)cc3)C2=O)cc1` (stereo partly drawn) [Example 66], the EC50 is at most 10 nM.

Take `O=C(Nc1cnc(C(F)(F)F)cn1)N[C@@H]1CCCN(c2ccc(N3CCC(F)(F)C3)cc2)C1=O` [Example 67]: the EC50 was ≤ 10 nM and 10 to 100 nM.

Take `O=C(Nc1ccc(C(F)(F)F)cc1)N[C@@H]1CCCN(c2ccc(N3CCC(F)(F)C3)cc2)C1=O` [Example 68]: the EC50 was at most 10 nM.

Consider `COCC1CCCCN1c1ccc(N2CCC[C@@H](NC(=O)Nc3cnc(C(F)(F)F)cn3)C2=O)c(F)c1` (stereo partly drawn) [Example 71], for which the EC50 was at most 10 nM.

Consider `O=C(Nc1ccc(C(F)(F)F)cc1)N[C@@H]1CCCN(c2ccc(N3CCCC(C(F)(F)F)C3)cc2)C1=O` (stereo partly drawn) [Example 72], for which the concentration giving a half-maximal response (EC50) was at most 10 nM.

As to `O=C(Nc1ccc(C(F)(F)F)cc1)N[C@@H]1CCCN(c2ccc(N3CCC(CO)C3)cc2)C1=O` (stereo partly drawn) [Example 73], the EC50 is at most 10 nM.

For `O=C(Nc1ccc(C(F)(F)F)cc1)N[C@@H]1CCCN(c2ccc(N3CC(O)C(F)C3)cc2)C1=O` (stereo partly drawn) [Example 74], the EC50 was at most 10 nM.

Regarding `CN(C)C1CCN(c2ccc(N3CCC[C@@H](NC(=O)Nc4ccc(Cl)cc4)C3=O)c(F)c2F)C1` (stereo partly drawn) [Example 75], the 50% effective concentration (EC50) is at most 10 nM.

Regarding `COC1CCN(c2ccc(N3CCC[C@@H](NC(=O)Nc4ccc(Cl)cc4)C3=O)cc2)C1` (stereo partly drawn) [Example 76], the EC50 is at most 10 nM.

For the compound `O=C(Nc1ccc(Cl)cc1)N[C@@H]1CCCN(c2ccc(N3CCCC(CO)C3)cc2)C1=O` (stereo partly drawn) [Example 78], the EC50 is at most 10 nM.

For orientation: EC50 means the concentration that produces a half-maximal response.
